This is an account of results in patent US9938281B2 (Merck Sharp & Dohme Corp., priority 2012, dated 2018).

One assay deals with T1, PI3K-alpha (Homo sapiens, UniProt P42336).
T1 construct: purchased Upstate; Millipore 14-602
Briefly: HTRF PI3K biochemical assay, alpha isoform. Particulars: ratio PI3K-alpha IC50 value / PI3K-delta IC50 value. (TR-FRET usually uses a lanthanide donor and a delayed reading to cut background.)

The next assay has as its target T2, PI3K-delta (Homo sapiens, UniProt O00329).
T2 construct: purchased Upstate; Millipore 14-604
Briefly: HTRF PI3K biochemical assay, delta isoform. The settings on record: form screened (neutral or TFA salt) given, read-out: PI3Kdelta IC50.

T1 sequence (P42336 whole entry): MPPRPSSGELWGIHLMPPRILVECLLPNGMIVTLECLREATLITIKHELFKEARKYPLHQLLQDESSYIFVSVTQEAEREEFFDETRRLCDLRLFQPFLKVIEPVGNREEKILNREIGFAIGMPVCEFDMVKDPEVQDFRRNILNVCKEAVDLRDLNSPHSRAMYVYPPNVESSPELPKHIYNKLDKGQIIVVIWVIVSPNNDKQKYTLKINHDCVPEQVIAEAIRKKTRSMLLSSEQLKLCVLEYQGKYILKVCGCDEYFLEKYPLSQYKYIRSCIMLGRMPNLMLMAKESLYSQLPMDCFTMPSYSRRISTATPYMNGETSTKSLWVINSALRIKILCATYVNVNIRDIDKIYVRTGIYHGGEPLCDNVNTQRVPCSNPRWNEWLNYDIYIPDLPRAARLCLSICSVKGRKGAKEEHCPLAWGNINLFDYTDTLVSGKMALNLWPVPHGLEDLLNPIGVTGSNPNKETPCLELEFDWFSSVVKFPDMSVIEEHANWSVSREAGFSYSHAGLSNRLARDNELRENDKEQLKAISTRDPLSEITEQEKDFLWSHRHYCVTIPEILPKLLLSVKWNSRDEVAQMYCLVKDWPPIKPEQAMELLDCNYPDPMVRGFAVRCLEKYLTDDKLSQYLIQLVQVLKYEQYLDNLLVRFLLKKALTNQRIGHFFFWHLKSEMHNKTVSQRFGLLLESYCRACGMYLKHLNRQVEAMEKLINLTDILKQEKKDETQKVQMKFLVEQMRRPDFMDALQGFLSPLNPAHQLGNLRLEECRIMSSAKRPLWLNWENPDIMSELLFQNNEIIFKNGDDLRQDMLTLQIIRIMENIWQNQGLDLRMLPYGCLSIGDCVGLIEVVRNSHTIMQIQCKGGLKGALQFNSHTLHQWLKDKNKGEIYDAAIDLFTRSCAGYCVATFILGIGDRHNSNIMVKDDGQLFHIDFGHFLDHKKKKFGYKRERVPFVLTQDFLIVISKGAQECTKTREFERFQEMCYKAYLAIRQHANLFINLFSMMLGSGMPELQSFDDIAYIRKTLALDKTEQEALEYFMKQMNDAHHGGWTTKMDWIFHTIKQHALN
T1 sequence (P27986 whole entry partner): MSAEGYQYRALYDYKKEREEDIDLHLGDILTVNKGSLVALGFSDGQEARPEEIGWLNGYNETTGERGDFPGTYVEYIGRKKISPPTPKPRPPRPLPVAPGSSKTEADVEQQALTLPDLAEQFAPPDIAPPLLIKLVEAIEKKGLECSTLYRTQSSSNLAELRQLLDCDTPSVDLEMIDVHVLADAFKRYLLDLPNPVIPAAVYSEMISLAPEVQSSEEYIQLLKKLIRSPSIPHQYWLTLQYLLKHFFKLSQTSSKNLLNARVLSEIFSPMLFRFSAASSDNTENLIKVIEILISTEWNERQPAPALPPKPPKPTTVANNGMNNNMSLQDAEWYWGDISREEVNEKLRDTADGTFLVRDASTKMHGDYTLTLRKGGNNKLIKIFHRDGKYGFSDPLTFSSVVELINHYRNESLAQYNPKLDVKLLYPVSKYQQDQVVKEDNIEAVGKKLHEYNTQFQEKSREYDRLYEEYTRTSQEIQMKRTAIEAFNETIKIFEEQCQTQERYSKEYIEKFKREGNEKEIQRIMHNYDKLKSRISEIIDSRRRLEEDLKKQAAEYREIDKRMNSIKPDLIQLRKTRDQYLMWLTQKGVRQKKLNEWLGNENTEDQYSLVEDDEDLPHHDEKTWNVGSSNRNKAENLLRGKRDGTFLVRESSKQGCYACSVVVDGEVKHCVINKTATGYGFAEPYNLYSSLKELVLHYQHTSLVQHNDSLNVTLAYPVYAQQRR
T2 sequence (O00329 whole entry): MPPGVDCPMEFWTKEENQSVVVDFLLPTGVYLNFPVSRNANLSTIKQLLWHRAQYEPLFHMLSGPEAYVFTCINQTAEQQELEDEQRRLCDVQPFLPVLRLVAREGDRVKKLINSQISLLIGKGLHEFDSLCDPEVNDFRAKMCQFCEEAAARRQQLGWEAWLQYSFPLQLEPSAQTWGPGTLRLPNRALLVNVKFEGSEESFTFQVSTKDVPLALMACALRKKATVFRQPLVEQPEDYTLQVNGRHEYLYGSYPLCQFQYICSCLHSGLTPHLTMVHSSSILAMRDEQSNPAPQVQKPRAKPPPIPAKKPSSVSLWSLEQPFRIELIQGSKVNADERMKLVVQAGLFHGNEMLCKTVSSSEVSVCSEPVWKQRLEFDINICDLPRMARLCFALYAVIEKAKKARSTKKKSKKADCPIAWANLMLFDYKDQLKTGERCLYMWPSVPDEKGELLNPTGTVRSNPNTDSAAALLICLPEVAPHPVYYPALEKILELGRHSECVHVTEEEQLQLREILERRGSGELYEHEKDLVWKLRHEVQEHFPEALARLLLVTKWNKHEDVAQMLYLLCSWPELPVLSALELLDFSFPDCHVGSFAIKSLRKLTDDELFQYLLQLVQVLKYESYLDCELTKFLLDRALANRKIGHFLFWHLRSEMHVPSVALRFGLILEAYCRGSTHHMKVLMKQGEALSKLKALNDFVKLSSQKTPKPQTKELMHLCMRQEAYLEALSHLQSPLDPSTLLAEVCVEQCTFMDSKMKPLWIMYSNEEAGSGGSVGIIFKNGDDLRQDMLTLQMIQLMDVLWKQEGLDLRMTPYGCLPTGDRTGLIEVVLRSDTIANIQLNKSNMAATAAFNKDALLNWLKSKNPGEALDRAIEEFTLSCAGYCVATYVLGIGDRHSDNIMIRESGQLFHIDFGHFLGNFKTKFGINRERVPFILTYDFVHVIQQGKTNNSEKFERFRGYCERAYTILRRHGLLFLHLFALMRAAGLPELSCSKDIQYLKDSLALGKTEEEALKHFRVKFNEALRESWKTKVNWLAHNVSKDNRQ
T2 sequence (P27986 whole entry partner): as the sequence (P27986 whole entry partner) above

Turning to `CCn1c(-c2cnc(C)nc2)nc2c(N[C@H]3CCN(C(=O)C4(COC)CCC4)C3)ncnc21` [Compound 2-57, 9-ethyl-N-[(3S)-1-{[1-(methoxymethyl)cyclobutyl]carbonyl}pyrrolidin-3-yl]-8-(2-methylpyrimidin-5-yl)-9H-purin-6-amine], the “Selectivity versus PI3Kalpha” value on PI3K-alpha is more than 10. For the same compound, the IC50 on PI3K-delta came to 7.1 nM.

Regarding `CCn1ncc(-c2nc3c(NC4CN(C(=O)C5CCOCC5)C4)ncnc3n2C)c1C` [Compound 2-48, 8-(1-ethyl-5-methyl-1H-pyrazol-4-yl)-9-methyl-N-[1-(tetrahydro-2H-pyran-4-ylcarbonyl)azetidin-3-yl]-9H-purin-6-amine], on PI3K-alpha, the “Selectivity versus PI3Kalpha” value was more than 10. Moreover, the IC50 on PI3K-delta worked out at 16 nM.

As to `CCn1c(-c2ccc(C(F)(F)F)cc2)nc2c(N[C@H]3CCN(C(=O)C4CC4)C3)ncnc21` [Compound 3-30, N-[(3S)-1-(cyclopropylcarbonyl)pyrrolidin-3-yl]-9-ethyl-8-[4-(trifluoromethyl)phenyl]-9H-purin-6-amine], on PI3K-alpha, the “Selectivity versus PI3Kalpha” value was more than 10. Besides, on PI3K-delta, the IC50 was 1.2 nM.

As to `CCn1ncc(-c2nc3c(NC4CN(C(=O)OC(C)(C)C)C4)ncnc3n2C)c1C` [Compound 1-10, tert-butyl 3-((8-(1-ethyl-5-methyl-1H-pyrazol-4-yl)-9-methyl-9H-purin-6-yl)amino)azetidine-1-carboxylate], the “Selectivity versus PI3Kalpha” value at PI3K-alpha is on record as more than 10. Further, the IC50 at PI3K-delta was determined as 15 nM.

`CCn1c(-c2cnc(C)nc2)nc2c(NC3CCCC(NC(=O)c4cocn4)C3)ncnc21` (single isomer, unassigned) [Compound 5-8, N-(1S,3S or 1R,3R)-(3-{[9-ethyl-8-(2-methylpyrimidin-5-yl)-9H-purin-6-yl]amino}cyclohexyl)-1,3-oxazole-4-carboxamide]: the “Selectivity versus PI3Kalpha” value at PI3K-alpha was more than 10. The IC50 on PI3K-delta was 12 nM.

Consider `CCC(=O)N1CC[C@H](Nc2ncnc3c2nc(-c2cnn(-c4ccccc4)c2C)n3C)C1` [Compound 3-11, 9-methyl-8-(5-methyl-1-phenyl-1H-pyrazol-4-yl)-N-[(3S)-1-propanoylpyrrolidin-3-yl]-9H-purin-6-amine], for which the “Selectivity versus PI3Kalpha” value on PI3K-alpha was more than 10. Also, the IC50 on PI3K-delta is less than 1 nM.

Consider `CCn1c(CC(F)(F)F)nc2c(N[C@H]3CCN(C(=O)C4CC4)C3)ncnc21` [Compound 7-7, N-[(3S)-1-(cyclopropylcarbonyl)pyrrolidin-3-yl]-9-ethyl-8-(2,2,2-trifluoroethyl)-9H-purin-6-amine], for which, on PI3K-alpha, the “Selectivity versus PI3Kalpha” value is given as more than 10. In addition, the IC50 on PI3K-delta turned out to be 770 nM.

`CCn1c(C(C)(C)C)nc2c(N[C@H]3CCN(C(=O)C4CC4)C3)ncnc21` [Compound 7-24, 8-tert-butyl-N-[(3S)-1-(cyclopropylcarbonyl)pyrrolidin-3-yl]-9-ethyl-9H-purin-6-amine]: the “Selectivity versus PI3Kalpha” value at PI3K-alpha is more than 10. Further, at PI3K-delta, the IC50 amounted to 150 nM.

As to `CCn1c(C(=O)N2CCOCC2)nc2c(N[C@H]3CCN(C(=O)C4CC4)C3)ncnc21` [Compound 6-4, N-[(3S)-1-(cyclopropylcarbonyl)pyrrolidin-3-yl]-9-ethyl-8-(morpholin-4-ylcarbonyl)-9H-purin-6-amine], the “Selectivity versus PI3Kalpha” value on PI3K-alpha is reported as more than 10. Also, at PI3K-delta, the IC50 was found to be 140 nM.

Turning to `CCCN1CC(Nc2ncnc3c2nc(-c2cnn(CC)c2C)n3C)CC1=O` (racemic) [Compound 14-1, 4(S and R)-{[8-(1-ethyl-5-methyl-1H-pyrazol-4-yl)-9-methyl-9H-purin-6-yl]amino}-1-propylpyrrolidin-2-one], the “Selectivity versus PI3Kalpha” value at PI3K-alpha was more than 10. The IC50 at PI3K-delta was determined as 11 nM.

As for `CCn1c(-c2cnc(C)nc2)nc2c(NC3CN(C(=O)C4CC4)CC3(C)C)ncnc21` (racemic) [Compound 2-95, (R and S)-N-[1-(cyclopropylcarbonyl)-4,4-dimethylpyrrolidin-3-yl]-9-ethyl-8-(2-methylpyrimidin-5-yl)-9H-purin-6-amine], the “Selectivity versus PI3Kalpha” value at PI3K-alpha is recorded as more than 10. Further, the IC50 on PI3K-delta was determined as 4.5 nM.

As to `CCn1c(-c2cnc(C)nc2)nc2c(N[C@H]3C[C@H](C(=O)N(C)C)N(C(=O)C4CC4)C3)ncnc21` [Compound 15-2, (4S)-1-(cyclopropylcarbonyl)-4-{[9-ethyl-8-(2-methylpyrimidin-5-yl)-9H-purin-6-yl]amino}-N,N-dimethyl-D-prolinamide], at PI3K-alpha, the “Selectivity versus PI3Kalpha” value is more than 10. On PI3K-delta, the IC50 stood at 14 nM.

With `CCn1c(C(=O)NC2CCCCC2)nc2c(N[C@H]3CCN(C(=O)C4CC4)C3)ncnc21` [Compound 6-14, N-cyclohexyl-6-{[(3S)-1-(cyclopropylcarbonyl)pyrrolidin-3-yl]amino}-9-ethyl-9H-purine-8-carboxamide], at PI3K-alpha, the “Selectivity versus PI3Kalpha” value is more than 10. At PI3K-delta, the IC50 came out at 17 nM.

As for `CCn1c(-c2cnc(C)nc2)nc2c(N[C@H]3CCN(C(=O)C4C(C)(C)C4(C)C)C3)ncnc21` [Compound 2-60, 9-ethyl-8-(2-methylpyrimidin-5-yl)-N-{(3S)-1-[(2,2,3,3-tetramethylcyclopropyl)carbon-yl]pyrrolidin-3-yl}-9H-purin-6-amine], the “Selectivity versus PI3Kalpha” value on PI3K-alpha was more than 10. Moreover, the IC50 on PI3K-delta amounted to 1.6 nM.

As for `CCn1c(-c2cnc(C)nc2)nc2c(N[C@H]3CCN(C(=O)CC(C)(C)O)C3)ncnc21` [Compound 2-30, 4-[(3S)-3-{[9-ethyl-8-(2-methylpyrimidin-5-yl)-9H-purin-6-yl]amino}pyrrolidin-1-yl]-2-methyl-4-oxobutan-2-ol], the “Selectivity versus PI3Kalpha” value at PI3K-alpha is recorded as more than 10. Also, on PI3K-delta, the IC50 was 15 nM.

As to `CCn1c(-c2cnc(C)nc2)nc2c(N[C@H]3CCN(C(=O)c4nnsc4C)C3)ncnc21` [Compound 2-71, 9-ethyl-8-(2-methylpyrimidin-5-yl)-N-{(3S)-1-[(5-methyl-1,2,3-thiadiazol-4-yl)carbonyl]pyrrolidin-3-yl}-9H-purin-6-amine], the “Selectivity versus PI3Kalpha” value at PI3K-alpha is reported as more than 10. Further, on PI3K-delta, the IC50 worked out at 4.2 nM.

As to `CCn1c(-c2cnc(C)nc2)nc2c(N[C@H]3CCN(C(=O)[C@H]4CCCN4C)C3)ncnc21` [Compound 2-42, 9-ethyl-N-[(3S)-1-(1-methyl-D-prolyl)pyrrolidin-3-yl]-8-(2-methylpyrimidin-5-yl)-9H-purin-6-amine], at PI3K-alpha, the “Selectivity versus PI3Kalpha” value is reported as more than 10. In addition, at PI3K-delta, the IC50 is 29 nM.

As for `CCC(=O)N1CC[C@H](Nc2ncnc3c2nc(-c2ncn(CC)c2C)n3C)C1` [Compound 3-12, 8-(1-ethyl-5-methyl-1H-imidazol-4-yl)-9-methyl-N-[(3S)-1-propanoylpyrrolidin-3-yl]-9H-purin-6-amine], the “Selectivity versus PI3Kalpha” value on PI3K-alpha is given as more than 10. Further, the IC50 on PI3K-delta turned out to be 690 nM.

Take `CCn1c(-c2cnc(C)nc2)nc2c(N[C@H]3CCN(C(=O)OC(C)C)C3)ncnc21` [Compound 13-5, 1-methylethyl (3S)-3-{[9-ethyl-8-(2-methylpyrimidin-5-yl)-9H-purin-6-yl]amino}pyrrolidine-1-carboxylate]: the “Selectivity versus PI3Kalpha” value at PI3K-alpha was more than 10. In addition, at PI3K-delta, the IC50 was determined as 6.2 nM.

On to `CCn1c(-c2cnc(C)nc2)nc2c(N[C@H]3C[C@H](C(N)=O)N(c4ccccn4)C3)ncnc21` [Compound 15-11, (4S)-4-{[9-ethyl-8-(2-methylpyrimidin-5-yl)-9H-purin-6-yl]amino}-1-pyridin-2-yl-D-prolinamide], for which the “Selectivity versus PI3Kalpha” value at PI3K-alpha was more than 10. Besides, on PI3K-delta, the IC50 was found to be 7.7 nM.

Regarding `CCn1c(-c2cnc3c(cnn3C)c2)nc2c(N[C@H]3CCN(C(=O)C4CC4)C3)ncnc21` [Compound 3-35, N-[(3S)-1-(cyclopropylcarbonyl)pyrrolidin-3-yl]-9-ethyl-8-(1-methyl-1H-pyrazolo[3,4-b]pyridin-5-yl)-9H-purin-6-amine], at PI3K-alpha, the “Selectivity versus PI3Kalpha” value is recorded as more than 10. Besides, the IC50 at PI3K-delta was less than 1 nM.

`CCn1c(-c2cnc(C)nc2)nc2c(N(C)[C@H]3CCN(C(=O)[C@H]4CC[C@@H](O)CC4)C3)ncnc21` [Compound 2-100, cis-4-{[(3S)-3-{[9-ethyl-8-(2-methylpyrimidin-5-yl)-9H-purin-6-yl](methyl)amino}pyrrolidin-1-yl]carbonyl}cyclohexanol]: the “Selectivity versus PI3Kalpha” value on PI3K-alpha was more than 10. Also, the IC50 at PI3K-delta turned out to be 6.3 nM.

Turning to `CCn1c(-c2ccc(C(F)(F)F)nc2)nc2c(N[C@H]3CCN(C(=O)C4CCOC4)C3)ncnc21` (single isomer, unassigned) [Compound 2-101, 9-ethyl-N-{(3S)-1-[(3R or 3S)-tetrahydrofuran-3-ylcarbonyl]pyrrolidin-3-yl}-8-[6-(trifluoromethyl)pyridin-3-yl]-9H-purin-6-amine], the “Selectivity versus PI3Kalpha” value at PI3K-alpha is recorded as more than 10. The IC50 on PI3K-delta was less than 1 nM.

As to `CCC(=O)N1CCC[C@H](Nc2ncnc3c2nc(-c2cnn(CC)c2C)n3C)C1` [Compound 2-46, 8-(1-ethyl-5-methyl-1H-pyrazol-4-yl)-9-methyl-N-[(3S)-1-propanoylpiperidin-3-yl]-9H-purin-6-amine], the “Selectivity versus PI3Kalpha” value at PI3K-alpha is on record as more than 10. In addition, at PI3K-delta, the IC50 came to 9.2 nM.

For `CCn1c(-c2cnc(C)nc2)nc2c(N[C@H]3C[C@H](c4nnc(C)o4)N(C(=O)C4CC4)C3)ncnc21` [Compound 15-14, N-[(3S,5R)-1-(cyclopropylcarbonyl)-5-(5-methyl-1,3,4-oxadiazol-2-yl)pyrrolidin-3-yl]-9-ethyl-8-(2-methylpyrimidin-5-yl)-9H-purin-6-amine], the “Selectivity versus PI3Kalpha” value at PI3K-alpha was more than 10. In addition, the IC50 on PI3K-delta worked out at 39 nM.

Consider `CCC(=O)N1CC[C@H](Nc2ncnc3c2nc(-c2ccc(Cl)nc2)n3C)C1` [Compound 3-14, 8-(6-chloropyridin-3-yl)-9-methyl-N-[(3S)-1-propanoylpyrrolidin-3-yl]-9H-purin-6-amine], for which the “Selectivity versus PI3Kalpha” value on PI3K-alpha is reported as more than 10. In addition, the IC50 at PI3K-delta was found to be 2.1 nM.

For `CCC(=O)N1CC[C@H](Nc2ncnc3c2nc(-c2cnc(OC)c(C)c2)n3CC)C1` [Compound 2-9, (S)-1-(3-((9-ethyl-8-(6-methoxy-5-methylpyridin-3-yl)-9H-purin-6-yl)amino)pyrrolidin-1-yl)propan-1-one], the “Selectivity versus PI3Kalpha” value at PI3K-alpha was more than 10. The IC50 on PI3K-delta was less than 1 nM.
